Each structure is given as a SMILES string.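 In this assay, cells in 96-well plates receive the compound at five concentrations for 48 hours. Endpoints are linearly interpolated between the surrounding concentrations. Definition used: TGI = concentration required for complete inhibition of growth.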

Test systems include SK-OV-3 ovarian; CAKI-1 renal; HS 578T breast; TK-10 renal; SK-MEL-28 melanoma; HT29 colon; SW-620 colon; NCI-H522 lung; COLO 205 colon; PC-3 prostate; MDA-N; SF-539 CNS; HOP-62 NSCLC; SNB-75 CNS; A549 NSCLC; OVCAR-5 ovarian; SNB-19 CNS; UACC-257 melanoma; HCC-2998 colon; SK-MEL-5 melanoma.
What all share (assay): NCI-60 cell line screen, 48 h

As to `C=C1C(=O)O[C@@H]2[C@H]1C[C@@H](O)[C@H](C)[C@@](O)(C(=O)/C=C/C)[C@H]2OC(=O)C(C)CC` (stereo not given in full), the TGI with SK-OV-3 ovarian was > 100 µM; in the assay on CAKI-1 renal it was 2.91 µM; in the assay with HS 578T breast, 6.34 µM; in the assay with TK-10 renal it was 16.7 µM; with SK-MEL-28 melanoma, 24.2 µM; in the assay with HT29 colon, 5.21 µM. Also, the TGI with SW-620 colon is 6.65 µM; in the assay with NCI-H522 lung it was 3.42 µM; in the assay with COLO 205 colon, 3.33 µM; with PC-3 prostate it was 51.5 µM; in the assay on MDA-N it was 10.3 µM; with SF-539 CNS, 15.8 µM. Further, the TGI is 49.2 µM in the assay with HOP-62 NSCLC; 51.6 µM in the assay with SNB-75 CNS; 33 µM in the assay with A549 NSCLC; 14.5 µM in the assay with OVCAR-5 ovarian; > 68.8 µM in the assay with SNB-19 CNS; > 39.4 µM with UACC-257 melanoma. Further, the TGI in the assay on HCC-2998 colon is > 67.4 µM; in the assay on SK-MEL-5 melanoma it was 21.3 µM.
With `CC(C)/C(Cl)=N\OC(=O)Nc1cccc(F)c1`, the TGI in the assay with SK-OV-3 ovarian was determined as 35.2 µM; in the assay with CAKI-1 renal, 32.5 µM; in the assay on HS 578T breast, 63.2 µM; with TK-10 renal, 28.1 µM; in the assay on SK-MEL-28 melanoma it was 31.9 µM; with HT29 colon it was 43.6 µM. In addition, the TGI stood at 5.5 µM with SW-620 colon; 2.98 µM in the assay with NCI-H522 lung; 5.87 µM with COLO 205 colon; 30.2 µM in the assay on PC-3 prostate; 29.5 µM in the assay on MDA-N; 35.4 µM with SF-539 CNS. Also, the TGI in the assay with HOP-62 NSCLC was > 31.6 µM; in the assay on SNB-75 CNS, 55.6 µM; with A549 NSCLC, 34.9 µM; in the assay with OVCAR-5 ovarian, 35.1 µM; with SNB-19 CNS, > 100 µM; with UACC-257 melanoma, 30 µM. The TGI is 36.9 µM in the assay with HCC-2998 colon and 28.4 µM in the assay on SK-MEL-5 melanoma.
Consider `COc1cc(N(CCC#N)CCC#N)ccc1/C=C1\SC(=S)NC1=O`, for which the TGI with SK-OV-3 ovarian, in the assay on CAKI-1 renal, in the assay with HS 578T breast, with TK-10 renal, in the assay with SK-MEL-28 melanoma and in the assay with HT29 colon was > 100 µM each time. Besides, the TGI in the assay on SW-620 colon, in the assay on NCI-H522 lung, in the assay on COLO 205 colon, in the assay with PC-3 prostate, in the assay on MDA-N and with SF-539 CNS was > 100 µM each time. The TGI with HOP-62 NSCLC, in the assay with SNB-75 CNS, in the assay on A549 NSCLC, with OVCAR-5 ovarian, with SNB-19 CNS and in the assay on UACC-257 melanoma was > 100 µM in each case. The TGI in the assay on HCC-2998 colon and in the assay with SK-MEL-5 melanoma was > 100 µM each time.
For `Cc1ccc2c(c1)C(=O)/C(=C\c1ccccc1)CCS2(=O)=O`, the TGI in the assay on SK-OV-3 ovarian is 60.8 µM; in the assay with CAKI-1 renal, 49.9 µM; with HS 578T breast, > 85.1 µM; in the assay with TK-10 renal it was 30.7 µM; with SK-MEL-28 melanoma it was > 66.4 µM; with HT29 colon it was 24.1 µM. In addition, the TGI in the assay on SW-620 colon was 73.5 µM; in the assay on NCI-H522 lung it was 14.6 µM; with COLO 205 colon, 42 µM; in the assay on PC-3 prostate, > 71.1 µM; in the assay with MDA-N, > 52.4 µM; in the assay with SF-539 CNS, 29.9 µM. The TGI with HOP-62 NSCLC was > 86 µM; with SNB-75 CNS, > 58 µM; in the assay on A549 NSCLC, > 87.8 µM; in the assay with OVCAR-5 ovarian, > 55.7 µM; in the assay with SNB-19 CNS, 28.2 µM; with UACC-257 melanoma, 31.6 µM. The TGI in the assay with HCC-2998 colon was 28.6 µM; in the assay on SK-MEL-5 melanoma, 29.4 µM.
With `COc1ccc(N(C)S(=O)(=O)c2ccccc2)cc1`, the TGI with SK-OV-3 ovarian, in the assay with CAKI-1 renal, with HS 578T breast, in the assay on TK-10 renal, in the assay with SK-MEL-28 melanoma and with HT29 colon was > 100 µM each time. In addition, the TGI in the assay on SW-620 colon, with NCI-H522 lung, in the assay on COLO 205 colon, in the assay with PC-3 prostate, in the assay on MDA-N and in the assay on SF-539 CNS was > 100 µM each time. Moreover, the TGI in the assay on HOP-62 NSCLC, in the assay with SNB-75 CNS, with A549 NSCLC, in the assay on OVCAR-5 ovarian, with SNB-19 CNS and in the assay on UACC-257 melanoma was > 100 µM in each case. Also, the TGI with HCC-2998 colon and in the assay with SK-MEL-5 melanoma was > 100 µM in each case.
Take `O=C1/C(=C/c2cccnc2)C(n2cccc2)c2c(Br)sc(Br)c21` (stereo not given): the TGI is 29.3 µM in the assay on SK-OV-3 ovarian; 7.51 µM with CAKI-1 renal; 9.66 µM with HS 578T breast; 4.28 µM with TK-10 renal; 7.31 µM in the assay with SK-MEL-28 melanoma; 11.1 µM with HT29 colon. Besides, the TGI in the assay on SW-620 colon is > 21.9 µM; in the assay with NCI-H522 lung, 12.6 µM; in the assay on COLO 205 colon, 21.6 µM; in the assay with PC-3 prostate it was 4.86 µM; in the assay with MDA-N, 4.24 µM; in the assay with SF-539 CNS, 9.5 µM. The TGI with HOP-62 NSCLC is 7.36 µM; with SNB-75 CNS, 3.67 µM; in the assay on A549 NSCLC, 32.5 µM; in the assay on OVCAR-5 ovarian, 31.9 µM; in the assay on SNB-19 CNS, 9.65 µM; in the assay on UACC-257 melanoma it was 3.36 µM. Besides, the TGI in the assay on HCC-2998 colon was found to be 2.41 µM; in the assay with SK-MEL-5 melanoma it was 21.5 µM.

Values taken from PubChem BioAssay (NCI).
